Assay [1] relates to eIF2α phosphatases (GADD34 and PPP1R15B/CReP) and eIF2α kinases (PERK and GCN2). Description: RT-qPCR of key factors regulating SG dynamics. Format: cell-based. The conditions noted are these: 50 µM, 6 h of reperfusion following OGD, HT22 cells. Here is the method: (§1) Total RNA from HT22 cells was extracted with Trizol. The concentration and purity of RNA were determined by Nanodrop (Thermo Scientific, USA), and RNA was reverse transcribed by PrimeScript Reverse Transcription Master Mix (TaKaRa, Japan). Then RT‐qPCR was performed using Hieff qPCR SYBR Green Master Mix (Yeasen, China). The expression level of the transcripts was normalized to the constitutive expression level of β‐actin. The primers used for amplification are listed in Table S4 (Supporting Information).

For assay [2], the system named is G3BP1‐bound mRNA. Description: RIP assay with RT-qPCR of G3BP1-bound mRNAs. Format: cell-based. The conditions noted are these: 50 µM, 6 h of reperfusion following OGD. Here is the method: as §1
RIP assay was performed with the BeyoRIP RIP Assay Kit (Beyotime, China) using the manufacturer's protocol. HT22 cells were washed with PBS and centrifuged, then the cell was resuspended in complete lysis buffer. 3–5 µg antibody was pre‐bound to protein A/G agarose beads in NT2 wash buffer for 0.5 h and then incubated with 270 µL cell lysates for 4 h at 4 °C with rotation, and RNA was eluted from the beads by incubating with 100 µL elution buffer for 0.5 h at 55 °C. The eluted RNA was dissolved with RNase‐free water. Enrichment of certain fragments was determined by RT‐qPCR.

For `Oc1cc(O)c2c(c1)O[C@H](c1ccc(O)c(O)c1)[C@@H](O)[C@@H]2c1c(O)cc(O)c2c1O[C@H](c1ccc(O)c(O)c1)[C@@H](O)C2` [Compound 1, procyanidin B3], in assay [1], the “expression of eIF2α phosphatases (GADD34 and PPP1R15B/CReP)” value was “significantly lower”; the “expression of two eIF2α kinases (PERK and GCN2)” value is given as “significantly higher”. The “level of G3BP1‐bound mRNA” value in assay [2] is “higher”.

(Values after publication PMC12677652, “Procyanidin B3 and Its Derivatives Alleviate Neuronal Injury by Targeting G3BP1 for Ischemic Stroke Therapy” (Advanced Science, 2025).)
